Measured values taken from US9060989B2, “Method for treating or relieving inflammatory bowel disease” (INDUSTRIAL TECHNOLOGY RESEARCH INSTITUTE, priority 2010, dated 2015).

Tested on: enteritis induced by trinitrobenzene sulfonic acid (TNBS)
Assay: Improvement of bowel swelling and mushy or watery feces in TNBS-induced enteritis
Type: in vivo
Details: TNBS-induced enteritis mice, oral; extracts 100 mg/kg (B. krylovianum also 1000 mg/kg), 5-ASA 200 mg/kg; 6 cm bowel from the anus observed
From the text: The animal model of enteritis for test is from an induction by trinitrobenzene sulfonic acid (TNBS) (Current Protocols in Immunology (2001) 15.19.1-15.19.14; Lahat G, Halperin D, Fabian I, et al. Immunomodulatory Effects of Ciprofloxacin in TNBS-Induced Colitis in Mice. Inflamm Bowel Dis 2007;13:557-565; ten Hove T, van den Blink B, Pronk I, et al. Dichotomal role of inhibition of p38 MAPK with SB 203580 in experimental colitis. Gut 2002; 50:507-512; and Bouma G, Strober W. The Immunological and Genetic Basis of Inflammatory Bowel Disease. Nature Review Immunology 2003; 3: 521-533). The bowel in the animal model of enteritis has swelled and the feces therein show a mushy or watery appearance instead of a normal semi-solid type appearance.
Specifically, BABL/cAnNCrlBltw mice, purchased from BioLASCO Taiwan (Bltw) were grouped into four groups having 6 mice to a group. In three of the groups, each mouse was injected with 1.75 mg of trinitrobenzene sulfonic acid (TNBS) (Sigma) at a 4 cm depth of the bowel from the anus. After 48 hours, the injected location was induced to form enteritis. Mice in another group were injected with a 50% ethanol aqueous solution without TNBS at a 4 cm depth of the bowel from the anus as a negative control (A). The location injected ethanol aqueous solution without TNBS was not induced to form enteritis. […]

## Nc1ccc(O)c(C(=O)O)c1 [5-ASA, 5-aminosalicylic acid]
  bowel swelling: not alleviated or eliminated
